Measurements published in ChEMBL document CHEMBL4052716, “Discovery and development of a novel class of phenoxyacetyl amides as highly potent TRPM8 agonists for use as cooling agents” (Bioorg Med Chem Lett, 2017).
Converted amounts (≈) assume the structure as drawn. The source made the active and inactive calls. The rule behind the calls is not given here.

Key:
[1] = target: T1, Transient receptor potential cation channel subfamily M member 8 (Homo sapiens, UniProt Q7Z2W7); assay: Agonist activity at human TRPM8 expressed in HEK293 cells assessed as increase in intracellular calcium level after 15 mins by Fluo-3-AM dye-based fluorescence assay; format: cell-based; conditions: read-out: EC50
Target sequence in this assay (Q7Z2W7 whole entry): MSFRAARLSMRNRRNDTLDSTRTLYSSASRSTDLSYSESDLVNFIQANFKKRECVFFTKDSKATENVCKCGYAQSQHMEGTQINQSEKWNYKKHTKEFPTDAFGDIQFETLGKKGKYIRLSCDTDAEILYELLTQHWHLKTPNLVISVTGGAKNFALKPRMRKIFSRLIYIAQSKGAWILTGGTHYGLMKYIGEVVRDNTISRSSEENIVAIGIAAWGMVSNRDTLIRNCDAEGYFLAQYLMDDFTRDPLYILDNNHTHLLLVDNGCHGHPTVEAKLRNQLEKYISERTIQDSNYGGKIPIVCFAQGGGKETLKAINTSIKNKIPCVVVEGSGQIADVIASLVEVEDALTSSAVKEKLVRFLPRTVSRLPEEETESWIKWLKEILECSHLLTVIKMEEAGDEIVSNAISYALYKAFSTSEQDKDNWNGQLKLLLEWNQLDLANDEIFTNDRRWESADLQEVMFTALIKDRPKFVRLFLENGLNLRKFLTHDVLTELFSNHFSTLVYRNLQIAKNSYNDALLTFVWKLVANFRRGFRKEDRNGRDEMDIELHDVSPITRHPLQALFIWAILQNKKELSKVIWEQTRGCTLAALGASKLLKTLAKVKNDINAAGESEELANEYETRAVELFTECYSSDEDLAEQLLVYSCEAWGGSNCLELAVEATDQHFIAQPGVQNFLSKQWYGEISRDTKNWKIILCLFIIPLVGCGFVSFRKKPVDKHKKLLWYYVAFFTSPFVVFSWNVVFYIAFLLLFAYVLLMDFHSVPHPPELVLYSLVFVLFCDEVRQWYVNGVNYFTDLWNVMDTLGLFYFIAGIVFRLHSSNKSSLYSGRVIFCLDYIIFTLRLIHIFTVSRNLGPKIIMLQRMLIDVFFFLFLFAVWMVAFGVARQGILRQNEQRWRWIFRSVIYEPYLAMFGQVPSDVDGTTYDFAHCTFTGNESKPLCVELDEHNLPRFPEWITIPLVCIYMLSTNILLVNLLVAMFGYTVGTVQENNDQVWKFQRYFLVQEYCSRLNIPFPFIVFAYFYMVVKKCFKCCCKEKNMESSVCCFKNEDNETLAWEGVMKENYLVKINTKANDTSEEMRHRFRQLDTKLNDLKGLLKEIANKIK

[2] = target: T1, Transient receptor potential cation channel subfamily M member 8; assay: Potency index, ratio of WS-3 EC50 to compound EC50 for human TRPM8 receptor
Target sequence in this assay (Q7Z2W7 whole entry, looked up): as the sequence (Q7Z2W7 whole entry) above

Homo sapiens [3] = assay: In vivo agonist activity at human TRPM8 in trained human subjects assessed as concentration required to deliver cooling sensation equivalent to 45 uM WS-3 by measuring cooling intensity; format: functional
Homo sapiens [4] = organism: Homo sapiens; assay: Induction of off-taste response in rained human subjects assessed as induction of bitterness during cooling sensation study
[5] = Thermodynamic solubility of the compound in pH 7.1 phosphoric buffer; format: physicochemical; conditions: read-out: Therm_solubility
[6] = Permeability of the compound assessed as drug transport by PAMPA; format: physicochemical
Homo sapiens [7] = organism: Homo sapiens; assay: Induction of off-taste response in rained human subjects during cooling sensation study
Homo sapiens [8] = assay: In vivo agonist activity at human TRPM8 in trained human subjects assessed as time duration of perceived cooling effect at 3 uM dosed as aqueous solution; format: functional
Homo sapiens [9] = assay: In vivo agonist activity at human TRPM8 in trained human subjects assessed as time duration of perceived cooling effect at 45 uM dosed as aqueous solution; format: functional
[10] = Stability of the compound in pH 2.8 citric acid assessed as compound remaining after heating at 100 degC for 24 hrs; format: physicochemical; conditions: read-out: Stability
[11] = Stability of the compound in pH 4.0 citric acid assessed as compound remaining after heating at 100 degC for 24 hrs; format: physicochemical; conditions: read-out: Stability
[12] = Stability of the compound in pH 7.1 phosphoric acid assessed as compound remaining after heating at 100 degC for 24 hrs; format: physicochemical; conditions: read-out: Stability

Question: What does the source list for `Cc1ccc(OCC(=O)N(Cc2cccs2)c2ccnn2C)cc1`?
Answer: EC50 [1]: 422 nM; Ratio EC50 [2]: 14; Activity (Homo sapiens [3]): inactive; Activity (Homo sapiens [4]): Toxic

Question: For `Cc1ccc(OCC(=O)N(Cc2cccs2)c2ccn[nH]2)cc1`, which EC50 [1] is on record?
Answer: 0.2 nM

Question: And the Ratio EC50 [2]?
Answer: 35800

Question: And the solubility thermodynamic [5]?
Answer: 189 µM (≈ 61.9 µg/mL)

Question: What about the Drug transport [6] of the same molecule?
Answer: 10%

Question: And the Activity (Homo sapiens [3])?
Answer: 3 µM

Question: What about the Activity (Homo sapiens [7]) of the same molecule?
Answer: Non-Toxic

Question: And the Time (Homo sapiens [8])?
Answer: 60 min

Question: For `CCNC(=O)[C@@H]1C[C@H](C)CC[C@H]1C(C)C`, which Time (Homo sapiens [9]) is on record?
Answer: 25 min

Question: For `Cc1ccc(OCC(=O)N(Cc2cccs2)c2ccon2)cc1`, which EC50 [1] is on record?
Answer: 2 nM

Question: And the Ratio EC50 [2]?
Answer: 3440

Question: And the remaining at 24 h [10]?
Answer: 90.8%

Question: And the remaining at 24 h [11]?
Answer: 78.1%

Question: What about the remaining at 24 h [12] of the same molecule?
Answer: 0.5%

Question: With `Cc1ccc(OCC(=O)N(Cc2cccs2)c2ncco2)cc1` as the molecule, how does the EC50 [1] read?
Answer: 0.3 nM

Question: And the Ratio EC50 [2]?
Answer: 120000

Question: What about the remaining at 24 h [10] of the same molecule?
Answer: 14.9%

Question: What about the remaining at 24 h [11] of the same molecule?
Answer: 73.7%

Question: What about the remaining at 24 h [12] of the same molecule?
Answer: 0.1%

Question: With `Cc1ccc(/C=C/C(=O)N(Cc2cccs2)c2ccn[nH]2)cc1` as the molecule, how does the EC50 [1] read?
Answer: 0.004 nM

Question: And the Ratio EC50 [2]?
Answer: > 1e+06

Question: What about the solubility thermodynamic [5] of the same molecule?
Answer: 3.7 µM (≈ 1.2 µg/mL)

Question: What about the Drug transport [6] of the same molecule?
Answer: 5%

Question: And the Activity (Homo sapiens [3])?
Answer: 3 µM
